Assay results from patent publication US20260373248A1, “DEGRADABLE PEPTOIDS” (Medici Therapeutics, Inc., priority 2023, published 2026).
Starred links: 1 amine or outer side, 2 acyl side, 3 side chain; linkers in the order of their positions; H or OH if unused. Non-standard residues stand in square brackets, D forms with d. Residues, ends and D or L forms follow the SMILES beside them. *: point of attachment. Gly(N-(3-decanoyloxypropyl)) = CCCCCCCCCC(=O)OCCCNCC(=O)O; Gly(N-(CH2)3O-octanoyl) = CCCCCCCC(=O)OCCCNCC(=O)O; N(3-imidazol-1-ylpropyl)Gly = O=C(O)CNCCCn1ccnc1; Gly(N-3-morpholinopropyl) = O=C(O)CNCCCN1CCOCC1; X5 = CCCCC(CC)C(=O)OCCCCCCN(CC(=O)[*:2])[*:1]; X4 = CCCCCCCCCCCC(=O)OCCN(CC(=O)[*:2])[*:1]; N(2-ethylhexyl)Gly = CCCCC(CC)CNCC(=O)O; X6 = CCCCCCCC(=O)OCCN(CC(=O)[*:2])[*:1]; X1 = CCCCC(CC)CSSCCN(CC(=O)[*:2])[*:1]; X7 = CCCCCCCCCCSSCCN(CC(=O)[*:2])[*:1]; Gly(N-dodecyl) = CCCCCCCCCCCCNCC(=O)O; N(CH(CH2OH)2)Gly = O=C(O)CNC(CO)CO; N(octyl)Gly = CCCCCCCCNCC(=O)O; NDecylGly = CCCCCCCCCCNCC(=O)O; For = O=C*

Columns and labels:
[1] = Delivery vehicle size and polydispersity by dynamic light scattering; assay type: physicochemical
Procedure: Delivery vehicles were formulated by rapid microfluidic mixing using a high throughput microfluidic system. Briefly, ethanol solutions containing peptoid, DSPC, Cholesterol, DMG-PEG2000 at weight ratio of 20:1.79:7.16:1.84, were mixed with 10 mM sodium citrate buffer (pH 5.0) containing synthesized mRNA at a ratio of 1:3 by volume. Peptoid based LNPs were subsequently dialyzed against 1-2 liters of tris-sucrose buffer (TS7, pH 7.4) overnight at 4 °C. Delivery vehicle size and polydispersity (PDI) was measured by dynamic light scattering in PBS.
(§1) Degradable peptoids described herein were formulated as various formulations described in Table 3 according to the procedure described in Example 2. Particle size was characterized as described in Example 2, and […] encapsulation of mRNA was determined as described in Example 3.

mRNA = mRNA encapsulation (modified Quant-iT RiboGreen assay); assay type: physicochemical; settings: for mean percent encapsulation of RNA: RiboGreen, without vs with Triton X-100; for % Encapsulation: mRNA
Procedure: The mRNA concentration and the percentage of encapsulated mRNA were determined using fluorescent-based Quant-iT RiboGreen RNA Reagent Kit (Life Technologies, Waltham, MA) as described previously. To determine the mRNA concentration, PNPs was incubated with […] for 10 min to release entrapped mRNA, followed by addition of RiboGreen RNA reagent. The fluorescence intensity of mRNA-RiboGreen reagent complex (excitation at 485 nm and emission at 530 nm) was detected using a microplate reader. The ratio of fluorescence without and with Triton X-100 were used to calculate the percentage of encapsulated mRNA.
as §1

firefly luciferase = assay: In vivo firefly luciferase expression after intravenous injection of fLuc mRNA delivery vehicles (IVIS imaging); design: species or system female Balb/c mice; settings: for Total Flux: mice, 2.5 ug fLuc mRNA intravenously, 6 hours post-injection; for Total Flux (luciferase expression): fLuc mRNA, intravenous, Balb/c mice
Procedure: (§2) All animal studies were conducted under accreditation by the California State Department of Public Health and under supervision of IACUC and Veterinarian Supervision. For imaging studies, female Balb/c mice (6-8 weeks old) were obtained and acclimatized for a minimum of 3 days prior to experiments. The animals were maintained on a 12 hour light cycle in a temperature and humidity controlled room. A daily health check was performed as well as food and water check. For dosing, mice were injected with 2.5 ug fLuc mRNA-containing Nutshells intravenously in 100 μL total injection value. At 6 hours post-injection, mice were anesthetized with isoflurane, injected IP with 30 mg/mL D-luciferin at a dose of 10 μL per gram bodyweight intraperitoneally. Imaging was done 10 minutes post D-luciferin injection using an IVIS Spectrum Imaging System (Caliper Life Sciences). Immediately after in vivo imaging, mice were terminally bled by cardiac puncture and euthanized. The organs of interest were harvested, placed in black 24-well plates, and imaged. Living Image software (Perkin Elmer) was used to quantify the total photon flux in regions of interest.
Luciferase expression in these formulations was also determined as described in Example 4.

luciferase = assay: Luciferase expression after local (intramuscular or subcutaneous) administration of mRNA; assay type: in vivo; settings: mRNA 0.01 mpk, 6 hours; for IM Flux: intramuscular; for SC Flux: subcutaneous
Procedure: as §2
Aminolipidated peptoids were also effective for local administration of mRNA through subcutaneous (S.C.) or intramuscular (I.M.) routes of administration. For these examples, mRNA was administered at a dose of 0.1 mpk for intratomoral, or 0.01 mpk for subcutaneous and intramuscular administration, and the resulting bioluminescence quantified after 6 hours according to a similar procedure as described in Example 4.

[2] = DLS in PBS, peptoid:DSPC:Cholesterol:DMG-PEG2000 weight ratio 20:1.79:7.16:1.84, mRNA

PDI [1, 2]	Particle Size [1, 2]	mean percent encapsulation of RNA (mRNA)	SMILES	Total Flux (firefly luciferase)	IM Flux (luciferase)	SC Flux (luciferase)	other results
0.094	79.7 nm	93.0%	CCCCCCCC(=O)OCCN(CC(=O)N(CC(=O)N(CC(=O)N(CCOC(=O)CCCCCCC)CC(=O)N(CC(N)=O)CC(CC)CCCC)CC(CC)CCCC)CC(CC)CCCC)C(=O)CN(CC(CC)CCCC)C(=O)CNC(CO)CO (stereo not shown) [Compound 1] (H-[N(CH(CH2OH)2)Gly][N(2-ethylhexyl)Gly][X6][N(2-ethylhexyl)Gly][N(2-ethylhexyl)Gly][X6][N(2-ethylhexyl)Gly]-NH2)	7.71E+08 p/s	–	–	–
0.076	74.6 nm	63.8%	CCCCCCCCCCCC(=O)OCCN(CC(=O)N(CC(=O)N(CC(=O)N(CCOC(=O)CCCCCCCCCCC)CC(=O)N(CC(N)=O)CC(CC)CCCC)CC(CC)CCCC)CC(CC)CCCC)C(=O)CN(CC(CC)CCCC)C(=O)CNC(CO)CO (stereo not shown) [Compound 3] (H-[N(CH(CH2OH)2)Gly][N(2-ethylhexyl)Gly][X4][N(2-ethylhexyl)Gly][N(2-ethylhexyl)Gly][X4][N(2-ethylhexyl)Gly]-NH2)	6.66E+08 p/s	–	–	–
0.090	72.1 nm	90.3%	CCCCCCCCCCCCN(CC(=O)N(CC(N)=O)CC(CC)CCCC)C(=O)CN(CC(CC)CCCC)C(=O)CN(CC(CC)CCCC)C(=O)CN(CCCOC(=O)CCCCCCC)C(=O)CN(CC(CC)CCCC)C(=O)CNC(CO)CO (stereo not shown) [Compound 14] (H-[N(CH(CH2OH)2)Gly][N(2-ethylhexyl)Gly][Gly(N-(CH2)3O-octanoyl)][N(2-ethylhexyl)Gly][N(2-ethylhexyl)Gly][Gly(N-dodecyl)][N(2-ethylhexyl)Gly]-NH2)	4.76E+08 p/s	–	–	–
0.091	72.9 nm	91.4%	CCCCCCCCCCCCN(CC(=O)N(CC(N)=O)CC(CC)CCCC)C(=O)CN(CCCCCCCC)C(=O)CN(CC(CC)CCCC)C(=O)CN(CCCCCCOC(=O)C(CC)CCCC)C(=O)CN(CCCCCCCC)C(=O)CNC(CO)CO (stereo not shown) [Compound 31] (H-[N(CH(CH2OH)2)Gly][N(octyl)Gly][X5][N(2-ethylhexyl)Gly][N(octyl)Gly][Gly(N-dodecyl)][N(2-ethylhexyl)Gly]-NH2)	1.11E+09 p/s	–	–	–
–	–	–	CCCCCCCCCCSSCCN(CC(=O)N(CC(N)=O)CC(CC)CCCC)C(=O)CN(CC(CC)CCCC)C(=O)CN(CC(CC)CCCC)C(=O)CN(CCCCCCCCCC)C(=O)CN(CC(CC)CCCC)C(=O)CNC(CO)CO (stereo not shown) [Compound 36] (H-[N(CH(CH2OH)2)Gly][N(2-ethylhexyl)Gly][NDecylGly][N(2-ethylhexyl)Gly][N(2-ethylhexyl)Gly][X7][N(2-ethylhexyl)Gly]-NH2)	3.51E+09 p/s	–	–	–
0.148	105.5 nm	72.3%	CCCCCCCCCC(=O)OCCCN(CC(=O)N(CC(N)=O)CC(CC)CCCC)C(=O)CN(CCCCCCCC)C(=O)CN(CC(CC)CCCC)C(=O)CN(CCCOC(=O)CCCCCCCCC)C(=O)CN(CCCCCCCC)C(=O)CNCCCn1ccnc1 (stereo not shown) [Compound 111] (H-[N(3-imidazol-1-ylpropyl)Gly][N(octyl)Gly][Gly(N-(3-decanoyloxypropyl))][N(2-ethylhexyl)Gly][N(octyl)Gly][Gly(N-(3-decanoyloxypropyl))][N(2-ethylhexyl)Gly]-NH2)	3.16E+08 p/s	4.89E+07 p/s	6.25E+07 p/s	–
0.166	82.9 nm	72.1%	CCCCCCCCCC(=O)OCCCN(C=O)CC(=O)N(CC(=O)N(CCCOC(=O)CCCCCCCCC)CC(=O)N(CCCN1CCOCC1)CC(=O)N(CCCOC(=O)CCCCCCCCC)CC(=O)N(CC(=O)N(CCCOC(=O)CCCCCCCCC)CC(N)=O)CC(CC)CCCC)CC(CC)CCCC (stereo not shown) [Compound 121] (For-[Gly(N-(3-decanoyloxypropyl))][N(2-ethylhexyl)Gly][Gly(N-(3-decanoyloxypropyl))][Gly(N-3-morpholinopropyl)][Gly(N-(3-decanoyloxypropyl))][N(2-ethylhexyl)Gly][Gly(N-(3-decanoyloxypropyl))]-NH2)	–	4.54E+07 p/s	5.20E+07 p/s	–
0.118	85.2 nm	93.5%	CCCCCCCC(=O)OCCCN(CC(=O)N(CCc1ccccc1)CC(=O)N(CC(=O)N(CCCN1CCOCC1)CC(=O)N(CC(=O)N(CCc1ccccc1)CC(=O)N(CCCOC(=O)CCCCCCC)CC(=O)N(CC(N)=O)CC(CC)CCCC)CC(CC)CCCC)CC(CC)CCCC)C(=O)CN(C=O)CC(CC)CCCC (stereo not shown) [Compound 124]	6.20E+08 p/s	4.35E+07 p/s	4.34E+07 p/s	–
0.093	84.1 nm	84.2%	CCCCCCCCN(CC(=O)N(CCCOC(=O)CCCCCCC)CC(=O)N(CCSSCC(CC)CCCC)CC(=O)N(CCCCCCCC)CC(=O)N(CCCOC(=O)CCCCCCC)CC(=O)N(CCSSCC(CC)CCCC)CC(N)=O)C(=O)CNC(CO)CO (stereo not shown) [Compound 127] (H-[N(CH(CH2OH)2)Gly][N(octyl)Gly][Gly(N-(CH2)3O-octanoyl)][X1][N(octyl)Gly][Gly(N-(CH2)3O-octanoyl)][X1]-NH2)	6.54E+09 p/s	3.36E+08 p/s	1.92E+08 p/s	–
0.098	62.1 nm	89.5%	CCCCCCCC(=O)OCCCN(CC(=O)N(CCCOC(=O)CCCCCCC)CC(=O)N(CCSSCC(CC)CCCC)CC(=O)N(CCCOC(=O)CCCCCCC)CC(=O)N(CCCOC(=O)CCCCCCC)CC(=O)N(CCSSCC(CC)CCCC)CC(N)=O)C(=O)CNC(CO)CO (stereo not shown) [Compound 128] (H-[N(CH(CH2OH)2)Gly][Gly(N-(CH2)3O-octanoyl)][Gly(N-(CH2)3O-octanoyl)][X1][Gly(N-(CH2)3O-octanoyl)][Gly(N-(CH2)3O-octanoyl)][X1]-NH2)	4.01E+09 p/s	4.20E+08 p/s	6.68E+08 p/s	Particle Size ([1]; formulation recipe D22): 62.1 nm; Particle Size ([1]; formulation recipe R3): 77.5 nm; Particle Size ([1]; formulation recipe R4): 73.6 nm; Particle Size ([1]; formulation recipe R7): 82.7 nm; Particle Size ([1]; formulation recipe R8): 78.9 nm; % Encapsulation (mRNA; formulation recipe D22): 89.5%; % Encapsulation (mRNA; formulation recipe R3): 89.5%; % Encapsulation (mRNA; formulation recipe R4): 87.7%; % Encapsulation (mRNA; formulation recipe R7): 92.5%; % Encapsulation (mRNA; formulation recipe R8): 94.4%; Total Flux (luciferase expression) (firefly luciferase; formulation recipe D22): 4.01E+09 p/s; Total Flux (luciferase expression) (firefly luciferase; formulation recipe R3): 5.39E+08 p/s; Total Flux (luciferase expression) (firefly luciferase; formulation recipe R4): 5.47E+08 p/s; Total Flux (luciferase expression) (firefly luciferase; formulation recipe R7): 1.09E+09 p/s; Total Flux (luciferase expression) (firefly luciferase; formulation recipe R8): 5.73E+08 p/s
0.101	61.2 nm	89.2%	CCCCCCCCCC(=O)OCCCN(CC(=O)N(CCSSCC(CC)CCCC)CC(N)=O)C(=O)CN(CCCCCCCC)C(=O)CN(CCSSCC(CC)CCCC)C(=O)CN(CCCOC(=O)CCCCCCCCC)C(=O)CN(CCCCCCCC)C(=O)CNC(CO)CO (stereo not shown) [Compound 129] (H-[N(CH(CH2OH)2)Gly][N(octyl)Gly][Gly(N-(3-decanoyloxypropyl))][X1][N(octyl)Gly][Gly(N-(3-decanoyloxypropyl))][X1]-NH2)	1.06E+09 p/s	2.00E+08 p/s	3.41E+08 p/s	–
